Test results from patent publication US20260042764A1, “COMPOSITIONS AND METHODS FOR INHIBITION OF KRAS” (TheRas, Inc., priority 2022, published 2026).

How the values were obtained:
[1] = target: T1, Avi-KRAS G12D (1-169) GppNHp/RAF1 RBD-3xFLAG (52-151) (Homo sapiens, UniProt P01116, G12D); assay: Raf1-KRAS G12D-GppNHP disruption HTRF assay (Biological Example 1); format: binding
T1 construct: Avi-KRAS G12D (1-169)
Outline: (§1)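 Measured with a KRAS/RAF1 HTRF assay at pH 7.5 in 10% DMSO, with two 1 h room-temperature incubations with shaking.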

[2] = target: T2, Avi-KRAS G12R (1-169) GppNHp/RAF1 RBD-3xFLAG (52-151) (Homo sapiens, UniProt P01116, G12R); assay: Raf1-KRAS G12R-GppNHP disruption HTRF assay (Biological Example 1); format: binding
T2 construct: Avi-KRAS G12R (1-169)
T2 sequence (P01116 1-169 isoform P01116-2 G12R): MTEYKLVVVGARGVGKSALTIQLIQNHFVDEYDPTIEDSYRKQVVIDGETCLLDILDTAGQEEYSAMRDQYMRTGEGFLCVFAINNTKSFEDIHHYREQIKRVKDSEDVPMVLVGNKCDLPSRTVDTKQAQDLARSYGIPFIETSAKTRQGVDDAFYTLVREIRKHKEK
Outline: as §1

[3] = target: T3, Avi-KRAS G12V (1-169) GppNHp/RAF1 RBD-3xFLAG (52-151) (Homo sapiens, UniProt P01116, G12V); assay: Raf1-KRAS G12V-GppNHP disruption HTRF assay (Biological Example 1); format: binding
T3 construct: Avi-KRAS G12V (1-169)
T3 sequence (P01116 1-169 isoform P01116-2 G12V): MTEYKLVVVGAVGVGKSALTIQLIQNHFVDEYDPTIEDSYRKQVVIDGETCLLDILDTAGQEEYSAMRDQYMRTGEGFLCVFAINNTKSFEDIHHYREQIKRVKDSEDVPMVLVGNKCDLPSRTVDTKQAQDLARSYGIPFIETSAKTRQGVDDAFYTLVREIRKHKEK
Outline: as §1

[4] = target: T4, Avi-KRAS WT (1-169) GppNHp/RAF1 RBD-3xFLAG (52-151) (Homo sapiens, UniProt P01116); assay: Raf1-KRAS WT-GppNHP disruption HTRF assay (Biological Example 1); format: binding
T4 construct: Avi-KRAS WT (1-169)
T4 sequence (P01116 1-169 isoform P01116-2): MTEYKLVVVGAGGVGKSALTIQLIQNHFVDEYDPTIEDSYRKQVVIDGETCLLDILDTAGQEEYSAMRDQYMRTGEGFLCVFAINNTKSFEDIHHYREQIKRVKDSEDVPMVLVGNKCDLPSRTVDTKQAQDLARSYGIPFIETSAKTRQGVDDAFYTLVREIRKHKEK
Outline: as §1

[5] = target: T5, Avi-KRAS G12V (2-169) GTP/RAF1 RBD-3xFLAG (51-131) (Homo sapiens, UniProt P01116, G12V); assay: Raf1-KRAS G12V-GTP disruption HTRF assay (Biological Example 3); format: binding; conditions: KRAS G12V, GTP-loaded
T5 construct: Avi-KRAS G12V (2-169)
T5 sequence (P01116 2-169 isoform P01116-2 G12V): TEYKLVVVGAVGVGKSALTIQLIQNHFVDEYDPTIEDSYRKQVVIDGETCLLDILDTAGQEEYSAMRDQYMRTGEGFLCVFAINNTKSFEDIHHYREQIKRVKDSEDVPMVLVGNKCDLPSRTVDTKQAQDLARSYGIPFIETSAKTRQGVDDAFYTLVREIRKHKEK
Outline: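 Compounds were titrated 10-point, 3-fold from 30 μM against preformed KRAS-GTP:RAF1 RBD (51-131) complexes at 50 nM, using KRAS 2-169 as WT, G12C, G12D or G12V. After 1 h at room temperature in Tris pH 7.5 buffer with MgCl2 and 10% DMSO, time-resolved fluorescence was read. Results are percent activity versus DMSO.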

SW620 cells (KRAS G12V) = assay: Cell-based pERK HTRF assay in SW620 cell (Biological Example 4)
Outline: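 This assay measures inhibition of ERK phosphorylation downstream of KRAS G12V in intact SW620 cells. Compounds are applied for 4 h over nine half-log concentrations starting at 1 μM, and pERK is quantified by HTRF.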

[6] = KRAS G12D, GppNHp-loaded, class symbols
[7] = KRAS G12R, GppNHp-loaded, class symbols
[8] = KRAS G12V, GppNHp-loaded, class symbols
[9] = KRAS WT, GppNHp-loaded, class symbols
[10] = Homo sapiens, SW-620, SW620 (KRAS G12V) cells
[11] = Homo sapiens, SW-620, SW620 (KRAS G12V) cells, pERK HTRF, class symbols

T1 sequence (P01116 1-169 isoform P01116-2 G12D): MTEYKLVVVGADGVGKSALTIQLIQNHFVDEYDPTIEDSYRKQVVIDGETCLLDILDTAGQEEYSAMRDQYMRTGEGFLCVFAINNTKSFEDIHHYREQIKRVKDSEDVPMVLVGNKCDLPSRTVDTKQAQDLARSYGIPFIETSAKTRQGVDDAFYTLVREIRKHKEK

CCN(c1nc(OC[C@@]23CCCN2C[C@H](F)C3)nc2c(F)c(-c3ccc(F)c4sc(N)c(C#N)c34)c(C(F)(F)F)cc12)[C@H]1CCN(C(=O)c2ccns2)C1 (atropisomer, axis not shown) [Compound 726]
IC50 [1, 6]: < 100 nM
IC50 [2, 7]: < 100 nM
IC50 [3, 8]: < 100 nM
IC50 [4, 9]: < 100 nM
IC50 [5]: 100 to 1000 nM
IC50 (SW620 cells (KRAS G12V); [10]): < 100 nM
IC50 (SW620 cells (KRAS G12V); [11]): < 100 nM

CCN(c1nc(OC[C@@]23CCCN2C[C@H](F)C3)nc2c(F)c(-c3ccc(F)c4sc(N)c(C#N)c34)c(C(F)(F)F)cc12)[C@H]1C[C@H](C)N(C(=O)OC)C1 (atropisomer, axis not shown) [Compound 704]
IC50 [1, 6]: < 100 nM
IC50 [2, 7]: < 100 nM
IC50 [3, 8]: < 100 nM
IC50 [4, 9]: < 100 nM
IC50 [5]: 100 to 1000 nM
IC50 (SW620 cells (KRAS G12V); [10]): < 100 nM
IC50 (SW620 cells (KRAS G12V); [11]): < 100 nM

N#Cc1c(N)sc2c(F)ccc(-c3c(C(F)(F)F)cc4c(N5C[C@H]6C[C@@H]5CO6)nc(OC[C@@]56CCCN5C[C@H](F)C6)nc4c3F)c12 [Compound 253, 2-amino-7-fluoro-4-[8-fluoro-2-[[(2R,8S)-2-fluoro-1,2,3,5,6,7-hexahydropyrrolizin-8-yl]methoxy]-4-[(1R,4R)-2-oxa-5-azabicyclo[2.2.1]heptan-5-yl]-6-(trifluoromethyl)quinazolin-7-yl]benzothiophene-3-carbonitrile]
IC50 ([1]; KRAS G12D, GppNHp-loaded, Table 11): 100 to 1000 nM
IC50 ([2]; KRAS G12R, GppNHp-loaded, Table 11): 100 to 1000 nM
IC50 ([3]; KRAS G12V, GppNHp-loaded, Table 11): 100 to 1000 nM
IC50 ([4]; KRAS WT, GppNHp-loaded, Table 11): 100 to 1000 nM
IC50 [5]: 1000 to 10000 nM
IC50 (SW620 cells (KRAS G12V); [10]): < 100 nM
IC50 (SW620 cells (KRAS G12V); Homo sapiens, SW-620, SW620 (KRAS G12V) cells, pERK HTRF): 100 to 1000 nM

CCN(c1nc(OC[C@@]23CCCN2C[C@H](F)C3)nc2c(F)c(-c3ccc(F)c4sc(N)c(C#N)c34)c(C(F)(F)F)cc12)[C@H]1CCN(C(=O)N2CCN(C(C)=O)CC2)C1 (atropisomer, axis not shown) [Compound 619]
IC50 [1, 6]: < 100 nM
IC50 [2, 7]: < 100 nM
IC50 [3, 8]: < 100 nM
IC50 [4, 9]: < 100 nM
IC50 [5]: 100 to 1000 nM
IC50 (SW620 cells (KRAS G12V); [10]): < 100 nM
IC50 (SW620 cells (KRAS G12V); [11]): < 100 nM

CCN(c1nc(OC[C@@]23CCCN2C[C@H](F)C3)nc2c(F)c(-c3ccc(F)c4sc(N)c(C#N)c34)c(C(F)(F)F)cc12)[C@@H]1CC(=O)N(C2CC2)C1 (atropisomer, axis not shown) [Compound 703]
IC50 [1, 6]: 100 to 1000 nM
IC50 [2, 7]: 1000 to 10000 nM
IC50 [3, 8]: 1000 to 10000 nM
IC50 [4, 9]: 100 to 1000 nM
IC50 [5]: 1000 to 10000 nM
IC50 (SW620 cells (KRAS G12V); [11]): < 100 nM
IC50 (SW620 cells (KRAS G12V); SW620 (KRAS G12V) cells): < 100 nM

CCN(c1nc(OC[C@@]23CCCN2C[C@H](F)C3)nc2c(F)c(-c3ccc(F)c4sc(N)c(C#N)c34)c(C(F)(F)F)cc12)[C@H]1C[C@H]2CCC(=O)N2C1 (atropisomer, axis not shown; (aR)) [Compound 573, 2-amino-4-((S)-4-(ethyl((2S,7aR)-5-oxohexahydro-1H-pyrrolizin-2-yl)amino)-8-fluoro-2-(((2R,7aS)-2-fluorotetrahydro-1H-pyrrolizin-7a(5H)-yl)methoxy)-6-(trifluoromethyl)quinazolin-7-yl)-7-fluorobenzo[b]thiophene-3-carbonitrile]
IC50 [1, 6]: < 100 nM
IC50 [2, 7]: < 100 nM
IC50 [3, 8]: < 100 nM
IC50 [4, 9]: < 100 nM
IC50 [5]: ≤ 100 nM
IC50 (SW620 cells (KRAS G12V); [10]): < 100 nM
IC50 (SW620 cells (KRAS G12V); [11]): < 100 nM

C[C@@H]1[C@H](N(C)c2nc(OC[C@@]34CCCN3C[C@H](F)C4)nc3c(F)c(-c4ccc(F)c5sc(N)c(C#N)c45)c(C(F)(F)F)cc23)CCN1C(=O)C1CC1 (atropisomer, axis not shown) [Compound 333]
IC50 ([1]; KRAS G12D-GppNHp/RAF1 RBD HTRF): < 100 nM
IC50 ([2]; KRAS G12R-GppNHp/RAF1 RBD HTRF): < 100 nM
IC50 ([3]; KRAS G12V-GppNHp/RAF1 RBD HTRF): 100 to 1000 nM
IC50 ([4]; KRAS WT-GppNHp/RAF1 RBD HTRF): < 100 nM
IC50 [5]: 100 to 1000 nM
IC50 (SW620 cells (KRAS G12V); [10]): < 100 nM
IC50 (SW620 cells (KRAS G12V); SW620 (KRAS G12V) cells, pERK HTRF): < 100 nM

N#Cc1c(N)sc2c(F)ccc(-c3c(C(F)(F)F)cc4c(N(C5CC5)[C@H]5CCS(=O)(=O)C5)nc(OC[C@@]56CCCN5C[C@H](F)C6)nc4c3F)c12 [Compound 702]
IC50 [1, 6]: 1000 to 10000 nM
IC50 [2, 7]: 1000 to 10000 nM
IC50 [3, 8]: 1000 to 10000 nM
IC50 [4, 9]: 1000 to 10000 nM
IC50 [5]: > 10000 nM
IC50 (SW620 cells (KRAS G12V); [10]): 100 to 1000 nM
IC50 (SW620 cells (KRAS G12V); [11]): 100 to 1000 nM

Cc1c(C(=O)N2CCOCC2)nn2c1CN(c1nc(OCC34CCCN3CC(F)C4)nc3c(F)c(-c4ccc(F)c5sc(N)c(C#N)c45)c(C(F)(F)F)cc13)CC2 (stereo not shown) [Compound 741]
IC50 [1, 6]: < 100 nM
IC50 [2, 7]: 100 to 1000 nM
IC50 [3, 8]: 100 to 1000 nM
IC50 [4, 9]: 100 to 1000 nM
IC50 [5]: 100 to 1000 nM
IC50 (SW620 cells (KRAS G12V); [10]): < 100 nM
IC50 (SW620 cells (KRAS G12V); [11]): < 100 nM

CCN(c1nc(OC[C@@]23CCCN2C[C@H](F)C3)nc2c(F)c(-c3ccc(F)c4sc(N)c(C#N)c34)c(C(F)(F)F)cc12)[C@H]1CCN(C(=O)[C@@H]2C[C@@H]2C)C1 (atropisomer, axis not shown) [Compound 689]
IC50 [1, 6]: < 100 nM
IC50 [2, 7]: < 100 nM
IC50 [3, 8]: < 100 nM
IC50 [4, 9]: 100 to 1000 nM
IC50 [5]: 100 to 1000 nM
IC50 (SW620 cells (KRAS G12V); [10]): < 100 nM
IC50 (SW620 cells (KRAS G12V); [11]): < 100 nM
